Data as given in patent US20230416258A1, “BENZ[…], AND PREPARATION METHOD THEREFOR AND USE THEREOF” (CHINA PHARMACEUTICAL UNIVERSITY, priority 2020, published 2023).

Test system: KM mice
Assay: Test for drug-induced disappearance of righting reflex in mice
Assay type: in vivo
Conditions: single rapid bolus via tail vein
Summary of the method: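 Female KM mice (18–25 g), randomly grouped, given a single rapid bolus via tail vein. Latency (administration to loss of righting reflex) and duration (loss to recovery) recorded.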

## C#CCSc1nnc2n1-c1ccc(Br)cc1C(c1ccccc1Cl)=N[C@H]2CCC(=O)OC [Compound 79, methyl (S)-3-(8-bromo-6-(2-chlorophenyl)-1-(prop-2-yn-1-ylthio)-4H-benzo[f][1,2,4]triazolo[4,3-a][1,4]diazepin-4-yl)propionate]
30 mg/kg
  Duration: 6.93 min
  Latency: 0.57 min

## C#CCSc1nnc2n1-c1ccc([N+](=O)[O-])cc1C(c1ccccc1Cl)=N[C@H]2CCC(=O)OC [Compound 80, methyl (S)-3-(8-nitro-6-(2-chlorophenyl)-1-(prop-2-yn-1-ylthio)-4H-benzo[f][1,2,4]triazolo[4,3-a][1,4]diazepin-4-yl)propionate]
60 mg/kg
  Duration: 13.57 min
  Latency: 0.86 min

## COC(=O)CC[C@@H]1N=C(c2ccccc2Cl)c2cc(Cl)ccc2-n2c(SCCN3CCOCC3)nnc21 [Compound 81, methyl (S)-3-(8-chloro-6-(2-chlorophenyl)-1-((2-morpholinoethyl)thio)-4H-benzo[f][1,2,4]triazolo[4,3-a][1,4]diazepin-4-yl)propionate]
60 mg/kg
  Duration: 6.41 min
  Latency: 0.21 min
100 mg/kg
  Duration: 12.38 min
  Latency: 0.22 min

## CCN(CC)CCSc1nnc2n1-c1ccc(Cl)cc1C(c1ccccc1Cl)=N[C@H]2CCC(=O)OC [Compound 84, methyl (S)-3-(8-chloro-6-(2-chlorophenyl)-1-((2-(diethylamino)ethyl)thio)-4H-benzo[f][1,2,4]triazolo[4,3-a][1,4]diazepin-4-yl)propionate]
30 mg/kg
  Duration: 21.9 min
  Latency: 0.31 min

## CCN(CC)CCSc1nnc2n1-c1ccc(Br)cc1C(c1ccccc1Cl)=N[C@H]2CCC(=O)OC [Compound 85, methyl (S)-3-(8-bromo-6-(2-chlorophenyl)-1-((2-(diethylamino)ethyl)thio)-4H-benzo[f][1,2,4]triazolo[4,3-a][1,4]diazepin-4-yl)propionate]
60 mg/kg
  Duration: 13.12 min
  Latency: 0.67 min

## CCN(CC)CCSc1nnc2n1-c1ccc([N+](=O)[O-])cc1C(c1ccccc1Cl)=N[C@H]2CCC(=O)OC [Compound 86, methyl (S)-3-(8-nitro-6-(2-chlorophenyl)-1-((2-(diethylamino)ethyl)thio)-4H-benzo[f][1,2,4]triazolo[4,3-a][1,4]diazepin-4-yl)propionate]
30 mg/kg
  Duration: 18.62 min
  Latency: 0.62 min

## COC(=O)CC[C@@H]1N=C(c2ccccc2Cl)c2cc(Cl)ccc2-n2c(SCCCN(C)C)nnc21 [Compound 87, methyl (S)-3-(8-chloro-6-(2-chlorophenyl)-1-((3-(dimethylamino)propyl)thio)-4H-benzo[f][1,2,4]triazolo[4,3-a][1,4]diazepin-4-yl)propionate]
60 mg/kg
  Duration: 21.17 min
  Latency: 0.73 min

## COC(=O)CC[C@@H]1N=C(c2ccccc2Cl)c2cc(Br)ccc2-n2c(SCCCN(C)C)nnc21 [Compound 88, methyl (S)-3-(8-bromo-6-(2-chlorophenyl)-1-((3-(dimethylamino)propyl)thio)-4H-benzo[f][1,2,4]triazolo[4,3-a][1,4]diazepin-4-yl)propionate]
30 mg/kg
  Duration: 15.82 min
  Latency: 0.53 min

## COC(=O)CC[C@@H]1N=C(c2ccccc2Cl)c2cc([N+](=O)[O-])ccc2-n2c(SCCCN(C)C)nnc21 [Compound 89, methyl (S)-3-(8-nitro-6-(2-chlorophenyl)-1-((3-(dimethylamino)propyl)thio)-4H-benzo[f][1,2,4]triazolo[4,3-a][1,4]diazepin-4-yl)propionate]
60 mg/kg
  Duration: 9.88 min
  Latency: 0.83 min

## COC(=O)CC[C@@H]1N=C(c2ccccc2Cl)c2cc(Cl)ccc2-n2c(SCCN3CCN(C)CC3)nnc21 [Compound 90, methyl (S)-3-(8-chloro-6-(2-chlorophenyl)-1-((2-(4-methylpiperazin-1-yl)ethyl)thio)-4H-benzo[f][1,2,4]triazolo[4,3-a][1,4]diazepin-4-yl)propionate]
30 mg/kg
  Duration: 15.26 min
  Latency: 0.67 min

## COC(=O)CC[C@@H]1N=C(c2ccccc2Cl)c2cc(Br)ccc2-n2c(SCCN3CCN(C)CC3)nnc21 [Compound 91, methyl (S)-3-(8-bromo-6-(2-chlorophenyl)-1-((2-(4-methylpiperazin-1-yl)ethyl)thio)-4H-benzo[f][1,2,4]triazolo[4,3-a][1,4]diazepin-4-yl)propionate]
30 mg/kg
  Duration: 17.33 min
  Latency: 1.80 min

## COC(=O)CC[C@@H]1N=C(c2ccccc2Cl)c2cc([N+](=O)[O-])ccc2-n2c(SCCN3CCN(C)CC3)nnc21 [Compound 92, methyl (S)-3-(8-nitro-6-(2-chlorophenyl)-1-((2-(4-methylpiperazin-1-yl)ethyl)thio)-4H-benzo[f][1,2,4]triazolo[4,3-a][1,4]diazepin-4-yl)propionate]
60 mg/kg
  Duration: 10.12 min
  Latency: 2.00 min

## COC(=O)CC[C@@H]1N=C(c2ccccc2Cl)c2cc(Cl)ccc2-n2c(SC3CCN(C)CC3)nnc21 [Compound 93, methyl (S)-3-(8-chloro-6-(2-chlorophenyl)-1-((1-methylpiperidin-4-yl)thio)-4H-benzo[f][1,2,4]triazolo[4,3-a][1,4]diazepin-4-yl)propionate]
30 mg/kg
  Duration: 12.41 min
  Latency: 0.58 min

## COC(=O)CC[C@@H]1N=C(c2ccccc2Cl)c2cc(Br)ccc2-n2c(SC3CCN(C)CC3)nnc21 [Compound 94, methyl (S)-3-(8-bromo-6-(2-chlorophenyl)-1-((1-methylpiperidin-4-yl)thio)-4H-benzo[f][1,2,4]triazolo[4,3-a][1,4]diazepin-4-yl)propionate]
60 mg/kg
  Duration: 13.85 min
  Latency: 0.61 min

## COC(=O)CC[C@@H]1N=C(c2ccccc2Cl)c2cc([N+](=O)[O-])ccc2-n2c(SC3CCN(C)CC3)nnc21 [Compound 95, methyl (S)-3-(8-nitro-6-(2-chlorophenyl)-1-((1-methylpiperidin-4-yl)thio)-4H-benzo[f][1,2,4]triazolo[4,3-a][1,4]diazepin-4-yl)propionate]
30 mg/kg
  Duration: 12.41 min
  Latency: 0.82 min

## COC(=O)CC[C@@H]1N=C(c2ccccc2Cl)c2cc(Cl)ccc2-n2c(SCCCN3CCN(CCO)CC3)nnc21 [Compound 96, methyl (S)-3-(8-chloro-6-(2-chlorophenyl)-1-((3-(4-(2-hydroxyethyl)piperazin-1-yl)propyl)thio)-4H-benzo[f][1,2,4]triazolo[4,3-a][1,4]diazepin-4-yl)propionate]
30 mg/kg
  Duration: 7.98 min
  Latency: 0.49 min

## COC(=O)CC[C@@H]1N=C(c2ccccc2Cl)c2cc([N+](=O)[O-])ccc2-n2c(SCCCN3CCN(CCO)CC3)nnc21 [Compound 98, methyl (S)-3-(8-nitro-6-(2-chlorophenyl)-1-((3-(4-(2-hydroxyethyl)piperazin-1-yl)propyl)thio)-4H-benzo[f][1,2,4]triazolo[4,3-a][1,4]diazepin-4-yl)propionate]
30 mg/kg
  Duration: 14.71 min
  Latency: 1.31 min

## COC(=O)CC[C@@H]1N=C(c2ccccc2Cl)c2cc(Cl)ccc2-n2c(SCN3CCOCC3)nnc21 [Compound 99, methyl (S)-3-(8-chloro-6-(2-chlorophenyl)-1-((morpholinomethyl)thio)-4H-benzo[f][1,2,4]triazolo[4,3-a][1,4]diazepin-4-yl)propionate]
60 mg/kg
  Duration: 19.37 min
  Latency: 2.63 min

## COC(=O)CC[C@@H]1N=C(c2ccccc2Cl)c2cc(Br)ccc2-n2c(SCN3CCOCC3)nnc21 [Compound 100, methyl (S)-3-(8-bromo-6-(2-chlorophenyl)-1-((morpholinomethyl)thio)-4H-benzo[f][1,2,4]triazolo[4,3-a][1,4]diazepin-4-yl)propionate]
30 mg/kg
  Duration: 9.75 min
  Latency: 0.64 min

## COC(=O)CC[C@@H]1N=C(c2ccccc2Cl)c2cc([N+](=O)[O-])ccc2-n2c(SCN3CCOCC3)nnc21 [Compound 101, methyl (S)-3-(8-nitro-6-(2-chlorophenyl)-1-((morpholinomethyl)thio)-4H-benzo[f][1,2,4]triazolo[4,3-a][1,4]diazepin-4-yl)propionate]
30 mg/kg
  Duration: 12.05 min
  Latency: 0.85 min

## COC(=O)CC[C@@H]1N=C(c2ccccc2)c2cc(Br)ccc2-n2c(SC)nnc21 [Compound 103, methyl (S)-3-(8-bromo-1-(methylthio)-6-phenyl-4H-benzo[f][1,2,4]triazolo[4,3-a][1,4]diazepin-4-yl)propionate]
30 mg/kg
  Duration: 14.42 min
  Latency: 0.74 min

## COC(=O)CC[C@@H]1N=C(c2ccccc2)c2cc([N+](=O)[O-])ccc2-n2c(SC)nnc21 [Compound 104, methyl (S)-3-(8-nitro-1-(methylthio)-6-phenyl-4H-benzo[f][1,2,4]triazolo[4,3-a][1,4]diazepin-4-yl)propionate]
30 mg/kg
  Duration: 9.78 min
  Latency: 0.77 min

## COC(=O)CC[C@@H]1N=C(c2ccccc2)c2cc(Cl)ccc2-n2c(SCCN3CCOCC3)nnc21 [Compound 105, methyl (S)-3-(8-chloro-1-((2-morpholinoethyl)thio)-6-phenyl-4H-benzo[f][1,2,4]triazolo[4,3-a][1,4]diazepin-4-yl)propionate]
30 mg/kg
  Duration: 13.94 min
  Latency: 0.63 min
60 mg/kg
  Duration: 13.17 min
  Latency: 0.49 min

## COC(=O)CC[C@@H]1N=C(c2ccccc2)c2cc(Br)ccc2-n2c(SCCN3CCOCC3)nnc21 [Compound 106, methyl (S)-3-(8-bromo-1-((2-morpholinoethyl)thio)-6-phenyl-4H-benzo[f][1,2,4]triazolo[4,3-a][1,4]diazepin-4-yl)propionate]
30 mg/kg
  Duration: 12.37 min
  Latency: 0.33 min
60 mg/kg
  Duration: 3.26 min
  Latency: 0.09 min

## COC(=O)CC[C@@H]1N=C(c2ccccc2)c2cc([N+](=O)[O-])ccc2-n2c(SCCN3CCOCC3)nnc21 [Compound 107, methyl (S)-3-(8-nitro-1-((2-morpholinoethyl)thio)-6-phenyl-4H-benzo[f][1,2,4]triazolo[4,3-a][1,4]diazepin-4-yl)propionate]
30 mg/kg
  Duration: 13.64 min
  Latency: 0.45 min
